BigSolDB 2.1

C[C@@H]1CC[C@@]2(OC1)O[C@H]1C[C@H]3[C@@H]4CC=C5C[C@@H](O)CC[C@]5(C)[C@H]4CC[C@]3(C)[C@H]1[C@@H]2C
solubility (mole fraction)
Conditions	in n-heptanol	in n-hexanol
300.15 K	–	0.00806
302.26 K	0.0088	–
303.35 K	–	0.00875
305.45 K	0.00959	0.00905
307.65 K	0.0101	–
308.15 K	–	0.00957
309.9 K	0.0106	0.0101
312.12 K	0.0112	0.0107
312.46 K	0.0119	0.0113
313.79 K	–	0.0119
314.11 K	0.0126	–
315.8 K	0.0133	0.0126
317.35 K	–	0.0132
317.75 K	0.014	–
319.26 K	–	0.0139
320.05 K	0.0147	–
320.77 K	–	0.0147
321.07 K	0.0155	–
321.95 K	–	0.0154
323.22 K	0.0163	–
323.95 K	–	0.0161
324.65 K	0.0171	–
325.05 K	–	0.0167
325.35 K	0.0179	–
326.2 K	–	0.0174
327.45 K	0.0188	–
327.95 K	–	0.0181
328.51 K	0.0196	–
329.6 K	0.0202	0.0188
